# In patent publication US9593140B2, “Antibacterial tylosin derivatives and methods for their preparation” (Bayer Intellectual Property GmbH, priority 2011, dated 2017):
# Experiments:
# Assay type in all cases: cell-based
# [1] = tested on: Mannhemia hemolytica KB345; experiment: Paper disc assay, M. hemolytica KB345 (Tilmicosin-sensitivity strain); conditions: for zone of inhibition at 1 mg/disc: 1 mg/6 mm disk; for Inhibition zone (mm): Table 4
# Method: (§1) (1) Antibacterial Activities Against Mannheimia and Pasteurella were Determined by the Following Steps:
# (§2) 1) M. hemolytica KB345 (Tilmicosin-sensitivity strain) and M. hemolytica KB346 (Tilmicosin-low sensitivity strain) were provided. KB 345 strain stored at −80° C. was seeded to BHIB agar medium (10 mL) by using Microbank beads (Pro-Lab) and platinum nail. After statically incubating the KB 345 strain for 24 hours at 37° C., it was seeded to maintaining slant BHIB agar medium (7 mL) by using platinum loop, further statically incubated for 24 hours at 37° C. to obtain slant. One platinum loop of KB 345 strain stored at the slant was inoculated into a large test tube charged with BHIB liquid medium (10 mL) and then incubated for 24 hours at 37° C. with shaking.
# (§3) 2) A paper disc (ADVANTEC, Φ:6 mm) was impregnated with a solution of test compound and dried under reduced pressure.
# (§4) 3) To a melted BHIB agar medium was inoculated 1% of the broth obtained from step 1) above to prepare a test plate. After the medium set, the paper disc prepared in step 2) above was put on the plate and it was incubated at 37° C.
# (§5) 4) After one day, the inhibition zone diameter and clarity (A to E) were determined.
# [2] = tested on: Bacillus subtilis ATCC6633; experiment: Paper disc assay, Bacillus subtilis (S)
# Method: (§6) (2) Antibacterial activities against other bacteria were determined with Micrococcus luteus ATCC9341 (1), Bacillus subtilis […] (s), Escherichia coli NIHJ (c), Xanthomonas campestris KB88 (X), Mucor racemosus IFO 4581 (Mu) and Candida albicans ATCC 64548 (Ca).
# (§7) Bacillus subtilis ATCC6633 was incubated in Davis synthetic medium and then the seed broth was combined with the medium in the ratio of 1:99 to obtain a test plate. Micrococcus luteus ATCC9341, Escherichia coli NIHJ and Xanthomonas campestris KB88 were respectively incubated in Nutrient agar medium and inoculated at 0.2%, 0.5% and 1.0%. Mucor racemosus IFO 4581 and Candida albicans ATCC 64548 were respectively incubated in GY agar medium and then inoculated at 0.3% and 0.2%.
# (§8) A paper disc (ADVANTEC, Φ:6 mm) was impregnated with a solution of test compound and dried under reduced pressure. The paper disc was put on the test plate and it was incubated for 24 hours at 37° C. After incubation, the inhibition zone diameter and clarity (A to E) were determined.
# [3] = tested on: Micrococcus luteus ATCC9341; experiment: Paper disc assay, Micrococcus luteus (l)
# Method: as §6, §7, §8
# Escherichia coli NIHJ = experiment: Paper disc assay, Escherichia coli (c)
# Method: as §6, §7, §8
# [4] = tested on: Xanthomonas campestris KB88; experiment: Paper disc assay, Xanthomonas campestris (X)
# Method: as §6, §7, §8
# [5] = tested on: Mannhemia hemolytica KB346; experiment: Paper disc assay, M. hemolytica KB346 (Tilmicosin-low sensitivity strain); conditions: Table 5; 100 mg/6 mm disk
# Method: as §1, §2, §3, §4, §5
# For KB346 strain, the same procedures were repeated.
# [6] = tested on: Mannheimia Haemolytica, 3 isolates; experiment: Minimal inhibitory concentrations, cattle pathogen isolates
# Method: (§9) The antibacterial activity by the compounds of the present invention may be measured using a number of assays available in the art. […] Minimal inhibitory concentrations (MICs) were determined against the most prevalent pathogens in cattle (Mannheimia Haemolytica, 3 isolates) and swine (A. pleuropneumoniae, 6 isolates).The results are summarized in Table 7.
# [7] = tested on: A. pleuropneumoniae, 6 isolates; experiment: Minimal inhibitory concentrations, swine pathogen isolates
# Method: as §9
SMILES,"zone of inhibition at 1 mg/disc ([1]; 24 h, Table 2)","zone of inhibition at 3 mg/disc ([1]; 24 h, Table 2, 3 mg/6 mm disk)",Inhibition zone (mm) ([2]; 0.1 mg/6 mm disc),Inhibition zone (mm) ([2]; 1 mg/6 mm disc),Inhibition zone (mm) ([2]; 10 mg/6 mm disc),Inhibition zone (mm) ([3]; 0.1 mg/6 mm disc),Inhibition zone (mm) ([3]; 1 mg/6 mm disc),Inhibition zone (mm) ([3]; 10 mg/6 mm disc),Inhibition zone (mm) (Escherichia coli NIHJ; 10 mg/6 mm disc),Inhibition zone (mm) ([4]; 0.1 mg/6 mm disc),Inhibition zone (mm) ([4]; 1 mg/6 mm disc),Inhibition zone (mm) ([4]; 10 mg/6 mm disc),also measured
"CC[C@H]1OC(=O)C[C@@H](O)[C@H](C)[C@@H](O[C@@H]2O[C@H](C)[C@@H](O)[C@H](N(C)C)[C@H]2O)[C@@H](CCn2cc(-c3ccsc3)nn2)C[C@@H](C)C(=O)/C=C/C(C)=C/[C@@H]1CO[C@@H]1O[C@H](C)[C@@H](O)[C@@H](OC)[C@H]1OC [YT14, 20-(4-(thiophene-3-yl)-1H-1,2,3-triazol-1-yl)-20-deoxodesmycosin]",11 mm,14 mm,8 mm,11 mm,15 mm,13.5 mm,20.5 mm,26.5 mm,7 mm,7 mm,16 mm,22 mm,"zone of inhibition at 10 mg/disc ([1]; 24 h, Table 2, 10 mg/6 mm disk): 16.5 mm; zone of inhibition at 30 mg/disc ([1]; 24 h, Table 2, 30 mg/6 mm disk): 19.5 mm; zone of inhibition at 100 mg/disc ([1]; 24 h, Table 2, 100 mg/6 mm disk): 22 mm"
"CC[C@H]1OC(=O)C[C@@H](O)[C@H](C)[C@@H](O[C@@H]2O[C@H](C)[C@@H](O)[C@H](N(C)C)[C@H]2O)[C@@H](CCn2cc(-c3ccccc3)nn2)C[C@@H](C)C(=O)/C=C/C(C)=C/[C@@H]1CO [YT112, 20-(4-phenyl-1H-1,2,3-triazol-1-yl)-20-deoxo-5-O-mycaminosyltylonolide]",–,–,–,–,–,–,–,–,–,–,–,–,Inhibition zone (mm) ([1]; 3 mg/6 mm disk): 17.0 mm; Inhibition zone (mm) ([1]; 10 mg/6 mm disk): 20.0 mm; Inhibition zone (mm) ([1]; 30 mg/6 mm disk): 25.0 mm; Inhibition zone (mm) ([1]; 100 mg/6 mm disk): 29.0 mm; Inhibition zone (mm) [5]: 11.5 mm; MICs ([6]; M. haemolytica isolate 1): 8 µg/mL; MICs ([6]; M. haemolytica isolate 2): 4 µg/mL; MICs ([6]; M. haemolytica isolate 3): 8 µg/mL; MICs ([7]; pleuropneumoniae isolate 1): 4 µg/mL; MICs ([7]; pleuropneumoniae isolate 2): 4 µg/mL; MICs ([7]; pleuropneumoniae isolate 3): 4 µg/mL; MICs ([7]; pleuropneumoniae isolate 4): 8 µg/mL; MICs ([7]; pleuropneumoniae isolate 5): 4 µg/mL; MICs ([7]; pleuropneumoniae isolate 6): 8 µg/mL
"CC[C@H]1OC(=O)C[C@@H](O)[C@H](C)[C@@H](O[C@@H]2O[C@H](C)[C@@H](O)C(N(C)C)C2O)[C@@H](CCN2CC(C)CC(C)C2)C[C@@H](C)C(=O)/C=C/C(C)=C/[C@@H]1CO[C@@H]1OC(C)[C@@H](O)[C@H](OC)C1OC (stereo partly drawn) [Tilmicosin, reference compound]",10.7 mm,13.5 mm,14 mm,11 mm,18 mm,12 mm,19 mm,27.5 mm,20 mm,12 mm,20 mm,30 mm,Inhibition zone (mm) (Escherichia coli NIHJ; 1 mg/6 mm disc): 13 mm
